{"source": "patent US6660494B2", "about": "(priority 2000, dated 2003)", "key": {"[1]": {"test": "stability on storage, in buffer solutions and in plating media", "format": "physicochemical", "conditions": "for stability in conventional buffer solutions: citrate/hydrochloric acid, Hepes/NaOH, Tris/HCl, boric acid/potassium chloride-sodium hydroxide, pH about 4 to about 10, ambient temperature; for stability in conventional plating media: e.g. Tryptic Soy Agar; for storage stability: temperatures below about 5° C., protected from light"}, "solubility in water": {"test": "solubility in water", "format": "physicochemical"}, "[2]": {"target": "PC-PLC of Clostridium perfringens (Clostridium perfringens, UniProt P0C216)", "sequence (P0C216 29-398 limits assumed)": "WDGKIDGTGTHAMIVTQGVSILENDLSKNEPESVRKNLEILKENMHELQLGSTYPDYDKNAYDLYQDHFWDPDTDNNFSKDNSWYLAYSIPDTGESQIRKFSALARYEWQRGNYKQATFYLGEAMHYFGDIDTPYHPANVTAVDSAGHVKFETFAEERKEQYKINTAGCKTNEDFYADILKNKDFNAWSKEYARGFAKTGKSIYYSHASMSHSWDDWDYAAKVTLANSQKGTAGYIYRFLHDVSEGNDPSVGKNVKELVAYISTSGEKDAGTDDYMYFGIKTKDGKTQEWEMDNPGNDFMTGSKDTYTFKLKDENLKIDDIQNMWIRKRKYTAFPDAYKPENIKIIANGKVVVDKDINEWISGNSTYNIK", "format": "biochemical"}, "[3]": {"target": "PC-PLC from Clostridium perfringens (Clostridium perfringens, UniProt P0C216)", "sequence (P0C216 29-398 limits assumed)": "as above", "format": "biochemical"}}, "note": "Entries after “also recorded” stand apart in the source; their conditions may differ. Read-outs that look alike come from different tables or passages of the source.", "data": [{"smiles": "C[N+](C)(C)CCOP(=O)([O-])Oc1c[nH]c2ccccc12", "note": "[Y-CP, 3-indoxylcholine phosphate]", "values": [{"measurement": "stability in conventional buffer solutions", "setting": "[1]", "value": "at least ten days"}, {"measurement": "stability in conventional plating media", "setting": "[1]", "value": "stable"}, {"measurement": "storage stability", "setting": "[1]", "value": "stable during extended periods of time"}, {"measurement": "solubility in water", "setting": "solubility in water", "value": "freely soluble in water"}]}, {"smiles": "C[N+](C)(C)CCOP(=O)([O-])Oc1c[nH]c2ccc(Br)c(Cl)c12", "note": "[X-CP, 5-bromo-4-chloro-3-indoxyl choline phosphate]", "values": [{"measurement": "additional effect on cleavage rate when these detergents/surfactants are combined with BSA", "setting": "[2]", "value": "no additional enhancement"}, {"measurement": "effect of detergent/surfactant additive on cleavage rate of the enzyme", "setting": "[2]", "value": "slight enhancement"}, {"measurement": "color of the solution", "setting": "[2]; pH 7", "value": "Bluish; also recorded: Colorless; also recorded: Pale blue; also recorded: Light blue; also recorded: Colorless*"}, {"measurement": "stability in conventional buffer solutions", "setting": "[1]", "value": "at least ten days"}, {"measurement": "stability in conventional plating media", "setting": "[1]", "value": "stable"}, {"measurement": "storage stability", "setting": "[1]", "value": "stable during extended periods of time"}, {"measurement": "Vmax", "setting": "[3]", "value": "93.6 nMol min^−1 (μg enzyme)^−1 and ≈ 94 μMol min^−1 (mg enzyme)^−1"}, {"measurement": "Vmax (rate of cleavage under saturating conditions)", "setting": "[3]", "value": 312, "unit": "nmol/min"}, {"measurement": "cleavage at 60° C. versus ambient temperature, times faster", "setting": "[3]", "value": "approximately 160"}, {"measurement": "factor of increase of enzymatic activity for every 10° C. of rise in temperature", "setting": "[3]", "value": "3-4"}, {"measurement": "Rate", "setting": "[3]; 22° C.", "value": 0.65, "unit": "nmol/min"}, {"measurement": "Specific Activity", "setting": "[3]; 22° C.", "value": 0.1, "unit": "µmol/min/mg"}, {"measurement": "Rate", "setting": "[3]; 41° C.", "value": 8.1, "unit": "nmol/min"}, {"measurement": "Specific Activity", "setting": "[3]; 41° C.", "value": 1.2, "unit": "µmol/min/mg"}, {"measurement": "Rate", "setting": "[3]; 46° C.", "value": 19.7, "unit": "nmol/min"}, {"measurement": "Specific Activity", "setting": "[3]; 46° C.", "value": 3.0, "unit": "µmol/min/mg"}, {"measurement": "Rate", "setting": "[3]; 51° C.", "value": 25.8, "unit": "nmol/min"}, {"measurement": "Specific Activity", "setting": "[3]; 51° C.", "value": 3.9, "unit": "µmol/min/mg"}, {"measurement": "Rate", "setting": "[3]; 55° C.", "value": 48.5, "unit": "nmol/min"}, {"measurement": "Specific Activity", "setting": "[3]; 55° C.", "value": 7.3, "unit": "µmol/min/mg"}, {"measurement": "Rate", "setting": "[3]; 60° C.", "value": 106.8, "unit": "nmol/min"}, {"measurement": "Specific Activity", "setting": "[3]; 60° C.", "value": 16.0, "unit": "µmol/min/mg"}, {"measurement": "Km", "setting": "[3]; read-out: Km (Michaelis-Menten constant)", "value": "~42", "unit": "mM"}, {"measurement": "solubility in water", "setting": "solubility in water", "value": "freely soluble in water"}]}]}
